Assay results as given in PubChem BioAssay AID1495 (Sanford-Burnham Center for Chemical Genomics, 2009).

Target: Chaperone protein DnaK (Escherichia coli) (UniProt C3TRK2)
Assay: E. coli DnaK binders, calorimetric Kd – biophysical, isothermal titration calorimetry, beta-domain, full-length DnaK, orthogonal assay for DnaK modulator project, SAR follow-up (AID 1495)
Conditions: purified DnaK, isothermal titration calorimetry binding; measured here: ATP Kd, compound-saturated DnaK

Row | Kd | Structure (SMILES)
1 | 2.5 µM | O=C(NCc1cccc2ccsc12)c1cccs1

Same assay, conditions: purified DnaK, isothermal titration calorimetry binding; measured here: Kd to DnaK substrate-binding domain

Row | Structure (SMILES) | Kd
2 | CC(Cc1ccc(F)cc1)NC(=O)c1cccs1 (stereo not given) | 13.7 µM
3 | O=C(Nc1ncc2ccccc2n1)c1cccs1 | 1.5 µM
4 | Cc1ccc(CNC(=O)c2ccc([N+](=O)[O-])o2)cc1 | 25 µM
5 | Cc1ccc(C(=O)NCc2ccc(F)cc2)o1 | 47.6 µM
6 | Cc1ccc(C(=O)NCc2ccc(Cl)cc2)o1 | 19.3 µM
7 | O=C(Nc1ccc2[nH]ccc2c1)c1cccs1 | 4.9 µM

Now from value to compound:

Row | Kd | Structure (SMILES)
8 | 64.1 µM | O=C(NCc1ccccc1F)c1cccs1
9 | 1 µM | O=C(NCc1cccc2ccccc12)c1cccs1
10 | 14.3 µM | O=C(NCc1ccccc1Br)c1cccs1

Same assay, conditions: purified DnaK, isothermal titration calorimetry binding; measured here: substrate peptide Kd, compound-saturated DnaK

Row | Structure (SMILES) | Kd
11 | CC(Cc1ccc(F)cc1)NC(=O)c1cccs1 (stereo not given) | 0.2 µM
12 | O=C(c1cccs1)N1CCN(CCO)CC1 | 7.9 µM
13 | O=C(Nc1ccc2[nH]ccc2c1)c1cccs1 | 2.2 µM

The next lines start with the values.

Row | Kd | Structure (SMILES)
14 | 1.2 µM | O=C(NCc1ccccc1O)c1cccs1
15 | 0.6 µM | O=C(NCc1ccc(Cl)c(Cl)c1)c1cccs1
